Assay results reported in ChEMBL document CHEMBL1151901, “3-(aminomethyl)piperazine-2,5-dione as a novel NMDA glycine site inhibitor from the chemical universe database GDB” (Bioorg Med Chem Lett, 2009).
Calls of active or inactive are those of the source. No cut-off for these calls is given here.

How the values were obtained:
[1] = target: Glutamate NMDA receptor; Grin1/Grin2a (Rattus norvegicus, UniProt P35439+Q00959); assay: Activity at rat NR1/NR2A receptor expressed in Xenopus oocytes assessed as inhibition of glycine-induced electrophysiological response; assay type: cell-based, Oocyte
[2] = target: Glutamate NMDA receptor (Rattus norvegicus) (UniProt P35439+Q00959+Q00960+Q00961+Q62645+Q8VHN2+Q9R1M7); assay: Displacement of [3H]MDL105519 from rat brain NMDA receptor glycine binding site at 100 uM by Packard Topcount scintillation counter

Chain of Glutamate NMDA receptor; Grin1/Grin2a (Q00959 whole entry, other chains not shown): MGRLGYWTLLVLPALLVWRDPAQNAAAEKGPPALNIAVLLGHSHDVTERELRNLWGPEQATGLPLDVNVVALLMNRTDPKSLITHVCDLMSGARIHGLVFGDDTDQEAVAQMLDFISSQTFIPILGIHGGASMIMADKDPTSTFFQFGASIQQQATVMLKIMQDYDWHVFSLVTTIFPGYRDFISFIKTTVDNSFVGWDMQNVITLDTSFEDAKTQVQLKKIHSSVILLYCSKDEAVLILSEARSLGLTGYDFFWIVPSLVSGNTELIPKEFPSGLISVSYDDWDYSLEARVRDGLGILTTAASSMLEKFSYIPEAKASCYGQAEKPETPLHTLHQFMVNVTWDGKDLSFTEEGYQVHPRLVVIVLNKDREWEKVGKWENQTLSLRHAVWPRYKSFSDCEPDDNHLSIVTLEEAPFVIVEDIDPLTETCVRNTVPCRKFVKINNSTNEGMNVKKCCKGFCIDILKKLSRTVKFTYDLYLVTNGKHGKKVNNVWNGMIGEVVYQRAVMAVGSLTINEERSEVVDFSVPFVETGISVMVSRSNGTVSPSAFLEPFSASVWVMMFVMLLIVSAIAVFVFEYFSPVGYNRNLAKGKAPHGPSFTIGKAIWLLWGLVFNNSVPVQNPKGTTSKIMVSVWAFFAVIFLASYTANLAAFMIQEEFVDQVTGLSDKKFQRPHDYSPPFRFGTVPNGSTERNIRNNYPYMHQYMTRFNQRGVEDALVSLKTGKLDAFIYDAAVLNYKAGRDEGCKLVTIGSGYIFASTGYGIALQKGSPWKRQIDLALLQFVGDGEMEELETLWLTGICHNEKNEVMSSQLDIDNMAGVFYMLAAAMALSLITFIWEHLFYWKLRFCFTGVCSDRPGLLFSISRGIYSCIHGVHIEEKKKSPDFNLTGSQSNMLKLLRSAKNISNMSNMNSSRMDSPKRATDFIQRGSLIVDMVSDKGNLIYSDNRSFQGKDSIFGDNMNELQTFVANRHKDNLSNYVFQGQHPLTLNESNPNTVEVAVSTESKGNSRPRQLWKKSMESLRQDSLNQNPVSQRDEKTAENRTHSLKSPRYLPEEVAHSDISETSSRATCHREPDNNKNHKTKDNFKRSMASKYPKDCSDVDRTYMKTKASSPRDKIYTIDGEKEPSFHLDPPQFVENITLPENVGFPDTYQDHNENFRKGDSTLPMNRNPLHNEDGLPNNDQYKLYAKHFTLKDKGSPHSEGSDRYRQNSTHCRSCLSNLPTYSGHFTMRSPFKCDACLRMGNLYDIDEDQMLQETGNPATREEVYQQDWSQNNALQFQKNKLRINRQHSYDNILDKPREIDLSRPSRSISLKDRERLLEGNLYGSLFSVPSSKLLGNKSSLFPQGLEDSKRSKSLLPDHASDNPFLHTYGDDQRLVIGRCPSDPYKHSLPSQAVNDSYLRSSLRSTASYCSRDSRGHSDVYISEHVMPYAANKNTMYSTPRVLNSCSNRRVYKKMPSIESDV

Row | IC50 [1] | Kd [1] | inhibition [2] | Activity [2] | SMILES
1 | 28 µM | – | – | – | C[C@H](N)CC(=O)NCC(=O)O
2 | 370 µM | 50 µM | 30% | – | NC[C@@H]1NC(=O)CNC1=O
3 | 65 µM | – | – | – | NCCCC(=O)NCC(=O)O
4 | – | – | – | inactive | NCC1CNC(=O)C(=O)N1 (racemic)
